Assay results from patent publication US7173007B1, “Therapy for microbial infections” (The Regents of the University of California, priority 2003, dated 2007).

Tests used:
[1] = system: MRSA; experiment: Colony-forming assay (CFU), liquid phase; format: cell-based, Staphylococcus aureus; details: 10 mM phosphate, 1% TSB, pH 7.4
Method: (§1) FIGS. 3A–C show Growth inhibition of MRSA, E. coli, and P. aeruginosa by cathelin-like protein. (a) Inhibition zone ssay on tryptone/agarose plates with MRSA. Clear circles show lack of bacterial growth. Lanes 1, 3, 5, bottom row: cathelin-like protein at […], 16 μM, respectively. Lane 2, top row:[…] of His-tagged cathelin-like protein before cleavage. Lane 4, top: enterokinase enzyme alone. All assays were performed in duplicate and repeated three times. (b), (c) CFU assay: growth inhibition of (b) MRSA and (c) E. coli, cultured in 10 mM phosphate and 1% TSB (pH 7.4) and then supplemented with different concentrations of human cathelin-like protein.
(§2) The colony-forming assay (CFU) was performed. Bacterial cultures (E. coli or MRSA) were collected at the logarithmic phase of growth in TSB, washed twice with phosphate-buffered saline, pH 7.4, and diluted to 104 CFU per ml in 10 mM phosphate buffer, pH 7.4, Na2HPO4/NaH2PO4-1% TSB (g per 1). Forty-five microliters of bacterial suspension were mixed with […] of H2O (control) or with […] of different concentrations of cathelin-like proteins, and the mixture was incubated at 37° C. Every 30 min, a […] aliquot of the reaction mixture was plated directly onto a TSB agar plate and then incubated at 37° C. overnight for enumeration of CFU. Data are reported as growth index=final CFU/CFU in initial inoculum. […]

[2] = system: E. coli (ATCC 25922); experiment: Radial diffusion (inhibition zone) assay; format: cell-based
Method: (§3) Antimicrobial assays. E. coli (ATCC 25922), Pseudomonas aeruginosa (ATCC 8427), Salmonella typhimurium (ATCC 13311), Proteus vulgaris (ATCC 8427), Staphylococcus epidermidis (ATCC 12228), and MRSA (ATCC 33591) isolates were maintained on trypticase soy broth (TSB) agar plates. Individual colonies were selected and cultured overnight in TSB, subcultured once at 1:50 in fresh TSB, and then grown to stationary phase for use in all experiments. The radial diffusion assay was performed in 0.5% agarose and 0.75% tryptone brought to ebullition and cooled to 43° C., and then mixed with […] of bacterial suspension and poured into a 10 cm Petri dish. A series of small wells (diameter, 3 mm) were punched in the plate after the agarose solidified. Two microliters of test samples were applied in each well. Plates were incubated at 37° C. overnight to allow visible growth of bacteria. Antibacterial activity was indicated by the clear zone (no bacterial growth) around the well.
(§4) Antimicrobial activity of recombinant cathelin-like protein. Recombinant cathelicidins were tested for antimicrobial activity using a standard radial diffusion assay. Different concentrations of the cathelin-like protein were loaded into wells on assay plates containing Gram-positive MRSA, S. epidermidis, and strains of the Gram-negative bacterial species E. coli, S. enteritidis, P. vulgaris, and P. aeruginosa. […] Similarly, cathelin-like protein inhibited growth of S. epidermidis ([…]) but not S. enteritidis or P. vulgaris.

[3] = system: Pseudomonas aeruginosa (ATCC 8427); experiment: Radial diffusion (inhibition zone) assay; format: cell-based; details: P. aeruginosa
Method: as §3, §4

[4] = system: Staphylococcus epidermidis (ATCC 12228); experiment: Radial diffusion (inhibition zone) assay; format: cell-based; details: S. epidermidis (Gram-positive)
Method: as §3, §4

[5] = system: S. enteritidis; experiment: Radial diffusion (inhibition zone) assay; format: cell-based
Method: as §3, §4

[6] = system: E. coli; experiment: Colony-forming assay (CFU), liquid phase; format: cell-based; parameters: unit of the concentration uncertain; details: 3 (unit uncertain), 10 mM phosphate, 1% TSB, pH 7.4
Method: as §1, §2

[7] = system: MRSA (ATCC 33591); experiment: Radial diffusion (inhibition zone) assay; format: cell-based, Staphylococcus aureus; details: MRSA (Gram-positive)
Method: as §1
as §3, with “A series of small wells (diameter, 3 mm) were punched in the plate after the agarose solidified. Two microliters of test samples were applied in each well. Plates were incubated at 37° C. overnight to allow visible growth of bacteria. Antibacterial activity was indicated by the clear zone (no bacterial growth) around the well.” left out

Substance	effect on growth (CFU) [1]	growth inhibition [2]	growth inhibition [3]	growth inhibition [4]	growth inhibition [5]	effect on growth (CFU) [6]	growth inhibition [7]
LL-37: C-terminal 37 amino acid mature antimicrobial peptide of human hCAP18 (LLGDFFRKSKEKIGKEFKRIVQRIKDFLRNLVPRTES) [reference compound]	no effect	highly active	highly active	inactive	highly active	bactericidal	inactive
CRAMP [reference compound]		highly active	highly active	inactive	highly active		inactive
